The test system of data set [1] is A2780. The data set can be described thus: Induction of cell cycle arrest in human A2780 cells assessed as accumulation of cells at G2/M phase at 0.95 uM after 72 hrs by flow cytometry (reference value: 15%). The class given is functional.
Data set [2] relates to A2780. Briefly: Induction of DNA damage in human A2780 cells at 0.1 to 0.4 uM assessed as increase in p-H2AX levels and measured by Western blot analysis. The class given is functional, cell-based. Particulars: dose 0.1-0.4 µM. (A western blot detects proteins with antibodies after separation by electrophoresis.)
The test system of data set [3] is A2780. Briefly: Induction of cell cycle arrest in human A2780 cells assessed as accumulation of cells at G0/1 phase at 0.95 uM after 72 hrs by flow cytometry (reference value: 48.7%). The class given is functional.
Data set [4] is described as follows: Antitumor activity against human MM487 cells xenografted in mouse assessed as tumor growth inhibition at 50 mg/kg, po bid administered 5 times a week for 3 weeks. The data set is classed as functional. Particulars: MM487, 504 h, read-out: TGI. On the technique in general: In xenograft studies the graft and the host belong to different species.
Data set [5] deals with NCI-H460. The data set can be described thus: Induction of cell cycle arrest in human NCI-H460 cells assessed as accumulation of cells at S phase at 0.26 uM after 72 hrs by flow cytometry (reference value: 32.1%). The data set is classed as functional. (A flow cytometer gives signals particle by particle.)
Data set [6] addresses T1, Histone deacetylase 11 (Homo sapiens) (UniProt Q96DB2).
T1 sequence (whole entry): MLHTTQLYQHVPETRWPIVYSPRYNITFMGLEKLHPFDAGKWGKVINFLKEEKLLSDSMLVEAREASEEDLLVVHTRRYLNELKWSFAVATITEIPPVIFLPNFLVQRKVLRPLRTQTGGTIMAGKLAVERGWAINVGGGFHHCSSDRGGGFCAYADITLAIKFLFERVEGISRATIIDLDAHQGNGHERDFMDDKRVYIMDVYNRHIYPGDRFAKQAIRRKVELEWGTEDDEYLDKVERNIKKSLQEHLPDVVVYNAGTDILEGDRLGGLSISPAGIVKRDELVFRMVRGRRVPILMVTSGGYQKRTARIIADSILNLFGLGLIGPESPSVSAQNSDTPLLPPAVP
Briefly: Inhibition of HDAC11 in human A2780 cells at 0.1 to 0.4 uM assessed as induction of p53 acetylation and measured by Western blot analysis. The data set is classed as cell-based. Particulars: dose 0.1-0.4 µM.

Data set [7] deals with MM473. Briefly: Induction of cell cycle arrest in human MM473-Luc cells assessed as accumulation of cells at S phase at 1.2 uM after 72 hrs by flow cytometry (reference value: 13.7%). The data set is classed as functional.
Data set [8] relates to MM473. Briefly: Induction of cell cycle arrest in human MM473-Luc cells assessed as accumulation of cells at G0/1 phase at 1.2 uM after 72 hrs by flow cytometry (reference value: 74.7%). The class given is functional.
A short description of data set [9]: Induction of cell cycle arrest in human H460-R9A cells assessed as accumulation of cells at G0/1 phase at 2.8 uM after 72 hrs by flow cytometry (reference value: 50.1%). The class given is functional.
Data set [10] addresses T1, Histone deacetylase 11 (Homo sapiens). The data set can be described thus: Inhibition of HDAC11 in human MM487 cells at 0.1 to 0.4 uM assessed as induction of p53 acetylation and measured by Western blot analysis. The data set is classed as cell-based. Particulars: dose 0.1-0.4 µM.
Data set [11] deals with MM473. The data set can be described thus: Induction of cell cycle arrest in human MM473-Luc cells assessed as accumulation of cells at sub-G1 phase at 1.2 uM after 72 hrs by flow cytometry (reference value: 1.3%). The class given is functional.
Data set [12] addresses T1, Histone deacetylase 11 (Homo sapiens). Briefly: Inhibition of HDAC11 in human MM487 cells at 0.1 to 0.4 uM assessed as increase in p21 level and measured by Western blot analysis. The class given is cell-based. As to conditions: dose 0.1-0.4 µM.
The subject of data set [13] is MM473. The data set can be described thus: Antitumor activity against human MM473 cells xenografted in mouse assessed as tumor growth inhibition at 50 mg/kg, po bid administered 5 times a week for 3 weeks. Particulars: MM473, 504 h, read-out: TGI. The class given is functional.
Data set [14] concerns NCI-H460. The data set can be described thus: Antitumor activity against human NCI-H460 cells xenografted in mouse assessed as tumor growth inhibition at 20 mg/kg, po qd administered […] for 3 to 4 weeks. The class given is functional. Particulars: time 3-4 weeks, read-out: TGI.
Data set [15] has as its system H460-R9A. Briefly: Antiproliferative activity against human H460-R9A cells at 0.75 to 12 uM in combination with SIS17 after 72 hrs by MTT assay. The data set is classed as functional, cell-based. As to conditions: dose 0.75-12 µM.
Data set [16] in a line: Induction of cell cycle arrest in human H460-R9A cells assessed as accumulation of cells at G0/1 phase at 2.2 uM after 72 hrs by flow cytometry (reference value: 50.1%). The data set is classed as functional.
In data set [17] the test system is NCI-H460. The data set can be described thus: Induction of cell cycle arrest in human NCI-H460 cells assessed as accumulation of cells at S phase at 0.12 uM after 72 hrs by flow cytometry (reference value: 32.1%). The data set is classed as functional.
A short description of data set [18]: Induction of cell cycle arrest in human H460-R9A cells assessed as accumulation of cells at sub-G1 phase at 2.2 uM after 72 hrs by flow cytometry (reference value: 1.5%). The class given is functional.
Data set [19] can be described thus: Toxicity in mouse xenografted with human H460-R9A cells assessed as body weight loss at 20 mg/kg, po qd administered 5 times a week for 3 to 4 weeks. The data set is classed as organism-based. As to conditions: in vivo, time 3-4 weeks.
Data set [20] in a line: Antitumor activity against human H460-R9A cells xenografted in mouse assessed as tumor growth inhibition at 20 mg/kg, po qd administered […] for 3 to 4 weeks. The class given is functional. As to conditions: time 3-4 weeks, read-out: TGI.

This is an account of results in ChEMBL document CHEMBL5154648, “Antitumor activity of novel POLA1-HDAC11 dual inhibitors” (Eur J Med Chem, 2022).

The source made the active and inactive calls. The calls are words filed in the database; no cut-off is given here.

For the compound `CC(Oc1ccc(-c2ccc(C=CC(=O)O)cc2)cc1C12CC3CC(CC(C3)C1)C2)C(=O)NO` (stereo not given), the results for the Activity in data set [1], in [3] and in [5] were 3%, 10.8% and 81.4%, respectively. Moreover, the result in data set [2] was Active. Besides, the inhibition in vivo at 50 mg/kg in data set [4] was 72%. The inhibition result in data set [6] was “Active”.

For `O=C(O)C=Cc1ccc(-c2ccc(OCC(=O)NO)c(C34CC5CC(CC(C5)C3)C4)c2)cc1`, the Activity is 62.9% in data set [7], 23% in data set [8], 49.7% in data set [9] and 39.7% in [11]. Moreover, the inhibition result in [10] and in data set [12] was “Active” in each case. Besides, in [13], the inhibition in vivo at 50 mg/kg was 77%.

As for `O=C(O)C=Cc1ccc(-c2ccc(O)c(C34CC5CC(CC(C5)C3)C4)c2)cc1`, the inhibition in vivo at 20 mg/kg turned out to be 64% in [14] and 0% in data set [20]. Also, the outcome in data set [15] was Active. In addition, the Activity in data set [16] came to 22.8%; in [17] it was 79.7%; in data set [18] it was 26.7%; in data set [19], 0%.
